From PubChem BioAssay AID330 (DTP/NCI, 2004)
Where “and” joins values, the source holds several entries; their conditions need not be identical. Identical values can stand only once. Toxic doses and inconclusive results are not listed.

System: P388 leukemia ip, CD2F1 mice, survival T/C
Assay: NCI In Vivo Anticancer Drug Screen. Data for tumor model P388 Leukemia (intraperitoneal) in CD2F1 (CDF1) mice
Conditions: endpoint: median survival time, higher = longer survival
Summary of the method: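 Mice carrying the transplanted tumor received test compound or vehicle. Survival was recorded in each group, and the value is the treated-group measurement divided by that of the vehicle-treated control group.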

[1] = dose: 100.0 mg/kg/injection, schedule: Q04DX003 (ip), vehicle: saline
[2] = dose: 200.0 mg/kg/injection, schedule: Q04DX003 (ip), vehicle: saline
[3] = dose: 100.0 mg/kg/injection, schedule: Q01DX005 (ip), vehicle: Klucel (hydroxypropylcellulose) (HPC)
[4] = dose: 25.0 mg/kg/injection, schedule: Q01DX005 (ip), vehicle: Klucel (hydroxypropylcellulose) (HPC)

In the case of `O=c1ccn2ccccc2n1`, the T/C (dose: 50.0 mg/kg/injection, schedule: Q01DX009 (ip), vehicle: saline) is reported as 95 % of control, the T/C (dose: 50.0 mg/kg/injection, schedule: Q04DX003 (ip), vehicle: saline) is reported as 91 % of control and the T/C (dose: 100.0 mg/kg/injection, schedule: Q01DX009 (ip), vehicle: saline) is reported as 86 % of control. The T/C [1] was 100 % of control, the T/C (dose: 200.0 mg/kg/injection, schedule: Q01DX009 (ip), vehicle: saline) was 95 % of control and the T/C [2] was 91 % of control.

In the case of `c1cc2c3c(c1)nc(CCCc1nc4cccc5c4n1CCC5)n3CCC2`, the T/C (dose: 25.0 mg/kg/injection, schedule: Q04DX003 (ip), vehicle: saline with Tween-80) is reported as 95 % of control, the T/C (dose: 50.0 mg/kg/injection, schedule: Q04DX003 (ip), vehicle: saline with Tween-80) is reported as 86 % of control and the T/C (dose: 100.0 mg/kg/injection, schedule: Q04DX003 (ip), vehicle: saline with Tween-80) is reported as 90 % of control.

With `O=C1c2ccccc2C(=O)c2c(NCCNCCO)ccc(O)c21` the T/C (dose: 1.25 mg/kg/injection, schedule: Q01DX009 (ip), vehicle: acid diluted with saline) was 118 % of control and 122 % of control, the T/C (dose: 2.5 mg/kg/injection, schedule: Q01DX009 (ip), vehicle: acid diluted with saline) was 216 % of control and the T/C (dose: 3.12 mg/kg/injection, schedule: Q04DX002 (ip), vehicle: water) was 110 % of control. The T/C (dose: 5.0 mg/kg/injection, schedule: Q01DX005 (ip), vehicle: saline) was 258 % of control, the T/C (dose: 5.0 mg/kg/injection, schedule: Q01DX005 (iv), vehicle: saline) was 119 % of control and the T/C (dose: 5.0 mg/kg/injection, schedule: Q01DX009 (ip), vehicle: acid diluted with saline) was 274 % of control. The T/C (dose: 5.0 mg/kg/injection, schedule: Q01DX009 (ip), vehicle: distilled water + Tween-80) was 177 % of control, the T/C (dose: 6.25 mg/kg/injection, schedule: Q04DX002 (ip), vehicle: other) was 120 % of control and the T/C (dose: 10.0 mg/kg/injection, schedule: Q01DX001 (iv), vehicle: saline) was 108 % of control. For the same compound, the T/C (dose: 10.0 mg/kg/injection, schedule: Q01DX005 (ip), vehicle: saline) was 276 % of control, the T/C (dose: 10.0 mg/kg/injection, schedule: Q01DX005 (iv), vehicle: saline) was 151 % of control and the T/C (dose: 10.0 mg/kg/injection, schedule: Q01DX009 (ip), vehicle: acid diluted with saline) was 436 % of control. For the same compound, the T/C (dose: 10.0 mg/kg/injection, schedule: Q01DX009 (ip), vehicle: distilled water + Tween-80) was 247 % of control, the T/C (dose: 10.0 mg/kg/injection, schedule: Q04DX003 (ip), vehicle: saline) was 185 % of control and the T/C (dose: 10.0 mg/kg/injection, schedule: Q04DX003 (iv), vehicle: saline) was 116 % of control. For the same compound, the T/C (dose: 19.4 mg/kg/injection, schedule: Q04DX003 (ip), vehicle: saline) was 259 % of control, the T/C (dose: 20.0 mg/kg/injection, schedule: Q01DX001 (ip), vehicle: saline) was 190 % of control and the T/C (dose: 20.0 mg/kg/injection, schedule: Q01DX001 (iv), vehicle: saline) was 116 % of control. The T/C (dose: 20.0 mg/kg/injection, schedule: Q01DX005 (ip), vehicle: saline) was 312 % of control, the T/C (dose: 20.0 mg/kg/injection, schedule: Q01DX005 (iv), vehicle: saline) was 177 % of control and the T/C (dose: 20.0 mg/kg/injection, schedule: Q01DX009 (ip), vehicle: acid diluted with saline) was 158 % of control. For the same compound, the T/C (dose: 20.0 mg/kg/injection, schedule: Q01DX009 (ip), vehicle: distilled water + Tween-80) was 211 % of control, the T/C (dose: 20.0 mg/kg/injection, schedule: Q04DX003 (ip), vehicle: saline) was 214 % of control and the T/C (dose: 25.0 mg/kg/injection, schedule: Q04DX002 (ip), vehicle: other) was 116 % of control. The T/C (dose: 25.0 mg/kg/injection, schedule: Q04DX002 (ip), vehicle: water) was 198 % of control, the T/C (dose: 32.4 mg/kg/injection, schedule: Q04DX003 (ip), vehicle: saline) was 211 % of control and the T/C (dose: 40.0 mg/kg/injection, schedule: Q01DX001 (ip), vehicle: saline) was 205 % of control. The T/C (dose: 40.0 mg/kg/injection, schedule: Q01DX009 (ip), vehicle: acid diluted with saline) was 150 % of control and 163 % of control, the T/C (dose: 40.0 mg/kg/injection, schedule: Q04DX003 (ip), vehicle: saline) was 223 % of control and the T/C (dose: 50.0 mg/kg/injection, schedule: Q04DX002 (ip), vehicle: other) was 103 % of control. The T/C (dose: 50.0 mg/kg/injection, schedule: Q04DX002 (ip), vehicle: water) was 261 % of control, the T/C (dose: 80.0 mg/kg/injection, schedule: Q01DX001 (ip), vehicle: saline) was 178 % of control and the T/C (dose: 100.0 mg/kg/injection, schedule: Q04DX002 (ip), vehicle: water) was 157 % of control and 161 % of control. The T/C (dose: 200.0 mg/kg/injection, schedule: Q04DX002 (ip), vehicle: water) was 188 % of control.

For `CCCCCCCCCCCC(=O)CCCCC`, the T/C (dose: 100.0 mg/kg/injection, schedule: Q01DX009 (ip), vehicle: other) was 90 % of control, the T/C (dose: 200.0 mg/kg/injection, schedule: Q01DX009 (ip), vehicle: other) was 100 % of control and the T/C (dose: 400.0 mg/kg/injection, schedule: Q01DX009 (ip), vehicle: other) was 104 % of control.

`C=C(c1ccc(OC)cc1)C(CC)c1ccc(OC)cc1` (stereo not given) was tested, and the T/C (dose: 60.0 mg/kg/injection, schedule: Q01DX005 (ip), vehicle: saline with Tween-80) was 101 % of control and the T/C (dose: 120.0 mg/kg/injection, schedule: Q01DX005 (ip), vehicle: saline with Tween-80) was 100 % of control.

For `CCCNC(=O)OCc1cnc2ccc(OC)cc2c1COC(=O)NCCC`, the T/C (dose: 50.0 mg/kg/injection, schedule: Q01DX005 (ip), vehicle: Klucel (hydroxypropylcellulose) (HPC)) was 96 % of control, the T/C [3] was 96 % of control and the T/C (dose: 200.0 mg/kg/injection, schedule: Q01DX005 (ip), vehicle: Klucel (hydroxypropylcellulose) (HPC)) was 93 % of control.

For `CCc1[nH]nc(-c2n[nH]c(CC)c2C)c1C`, the T/C (dose: 60.0 mg/kg/injection, schedule: Q01DX005 (ip), vehicle: saline) was 100 % of control, the T/C (dose: 120.0 mg/kg/injection, schedule: Q01DX005 (ip), vehicle: saline) was 102 % of control and the T/C (dose: 240.0 mg/kg/injection, schedule: Q01DX005 (ip), vehicle: saline) was 98 % of control.

With `CN(C)C(=O)c1nc(CNC(=O)CN)n(-c2ccc(Cl)cc2C(=O)c2ccccc2)n1` the T/C (dose: 60.0 mg/kg/injection, schedule: Q01DX005 (ip), vehicle: Klucel (hydroxypropylcellulose) (HPC)) was 103 % of control and the T/C (dose: 120.0 mg/kg/injection, schedule: Q01DX005 (ip), vehicle: Klucel (hydroxypropylcellulose) (HPC)) was 100 % of control.

With `Cc1ccc(S(=O)(=O)N=S(C)C)cc1` the T/C (dose: 6.25 mg/kg/injection, schedule: Q01DX009 (ip), vehicle: other) was 117 % of control, the T/C (dose: 12.5 mg/kg/injection, schedule: Q01DX009 (ip), vehicle: other) was 107 % of control and the T/C (dose: 25.0 mg/kg/injection, schedule: Q01DX009 (ip), vehicle: other) was 113 % of control. The T/C (dose: 50.0 mg/kg/injection, schedule: Q01DX009 (ip), vehicle: other) was 118 % of control, the T/C (dose: 50.0 mg/kg/injection, schedule: Q01DX009 (ip), vehicle: saline with Tween-80) was 100 % of control and the T/C (dose: 100.0 mg/kg/injection, schedule: Q01DX009 (ip), vehicle: saline with Tween-80) was 106 % of control. For the same compound, the T/C (dose: 200.0 mg/kg/injection, schedule: Q01DX009 (ip), vehicle: saline with Tween-80) was 111 % of control and the T/C (dose: 400.0 mg/kg/injection, schedule: Q01DX009 (ip), vehicle: saline with Tween-80) was 116 % of control.

With `CC(C)N1COCO[C@H]2CCC[C@@H]21` the T/C [4] was 113 % of control, the T/C (dose: 100.0 mg/kg/injection, schedule: Q01DX001 (ip), vehicle: Klucel (hydroxypropylcellulose) (HPC)) was 93 % of control and the T/C [3] was 113 % of control. For the same compound, the T/C (dose: 200.0 mg/kg/injection, schedule: Q01DX001 (ip), vehicle: Klucel (hydroxypropylcellulose) (HPC)) was 90 % of control.

`O=C(NCCF)Oc1ccc([N+](=O)[O-])cc1` was tested, and the T/C (dose: 6.25 mg/kg/injection, schedule: Q01DX005 (ip), vehicle: Klucel (hydroxypropylcellulose) (HPC)) was 106 % of control, the T/C (dose: 12.5 mg/kg/injection, schedule: Q01DX005 (ip), vehicle: Klucel (hydroxypropylcellulose) (HPC)) was 113 % of control and 115 % of control and the T/C [4] was 121 % of control and 122 % of control.

In the case of `CS\C(N)=N/N=C/C(C)=N/N=C(/N)SC`, the T/C (dose: 50.0 mg/kg/injection, schedule: Q04DX002 (ip), vehicle: saline with Tween-80) is reported as 101 % of control, the T/C (dose: 100.0 mg/kg/injection, schedule: Q04DX002 (ip), vehicle: saline with Tween-80) is reported as 100 % of control and the T/C (dose: 200.0 mg/kg/injection, schedule: Q04DX002 (ip), vehicle: saline with Tween-80) is reported as 100 % of control.

For `O=C(/C=C/c1c(-c2ccccc2)[nH]c2ccccc12)c1ccccc1O`, the T/C (dose: 7.5 mg/kg/injection, schedule: Q01DX005 (ip), vehicle: saline with Tween-80) was 106 % of control, the T/C (dose: 15.0 mg/kg/injection, schedule: Q01DX005 (ip), vehicle: saline with Tween-80) was 92 % of control and the T/C (dose: 30.0 mg/kg/injection, schedule: Q01DX005 (ip), vehicle: saline with Tween-80) was 90 % of control. The T/C (dose: 240.0 mg/kg/injection, schedule: Q01DX005 (ip), vehicle: saline with Tween-80) was 88 % of control.

With `Cc1cnc(C)n2c(C)nnc12` the T/C [1] was 99 % of control and the T/C [2] was 96 % of control.
